≈ marks a conversion by molar mass, not a printed value.
What was measured:
Type in all cases: functional
Streptococcus pneumoniae [1] = experiment: Antibacterial activity against penicillin-resistant Streptococcus pneumoniae ATCC 51916 assessed as bacterial growth inhibition measured after 20 hrs by broth dilution method
Enterococcus faecium [2] = experiment: Ratio of MBC to MIC against vancomycin-resistant Enterococcus faecium ATCC 51559
Enterococcus faecium [3] = experiment: Antibacterial activity against vancomycin-resistant Enterococcus faecium ATCC 51559 assessed as bacterial growth inhibition measured after 20 hrs by broth dilution method
Staphylococcus aureus [4] = experiment: Ratio of MBC to MIC against Staphylococcus aureus ATCC 43300
Enterococcus faecium [5] = experiment: Ratio of MBC to MIC against vancomycin-resistant Enterococcus faecium ATCC 700221
Staphylococcus aureus [6] = experiment: Antibacterial activity against methicillin-resistant Staphylococcus aureus ATCC 43300 assessed as bacterial growth inhibition measured after 20 hrs by broth dilution method
[7] = test system: Staphylococcus epidermidis; experiment: Ratio of MBC to MIC against Staphylococcus epidermidis ATCC 51625
[8] = test system: Staphylococcus epidermidis; experiment: Antibacterial activity against Staphylococcus epidermidis ATCC 51625 assessed as bacterial growth inhibition measured after 20 hrs by broth dilution method
Streptococcus pneumoniae [9] = experiment: Ratio of MBC to MIC against penicillin-intermediate Streptococcus pneumoniae ATCC 49619
Streptococcus pneumoniae [10] = experiment: Antibacterial activity against penicillin-intermediate Streptococcus pneumoniae ATCC 49619 assessed as bacterial growth inhibition measured after 20 hrs by broth dilution method
Staphylococcus aureus [11] = experiment: Antibacterial activity against methicillin-resistant Staphylococcus aureus ATCC 33591 assessed as bacterial growth inhibition measured after 20 hrs by broth dilution method
Enterococcus faecium [12] = experiment: Antibacterial activity against vancomycin-resistant Enterococcus faecium ATCC 700221 assessed as bacterial growth inhibition measured after 20 hrs by broth dilution method
Staphylococcus aureus [13] = experiment: Ratio of MBC to MIC against methicillin-resistant Staphylococcus aureus ATCC 33591
Streptococcus pneumoniae [14] = experiment: Ratio of MBC to MIC against penicillin-resistant Streptococcus pneumoniae ATCC 51916

Compound	MIC (Streptococcus pneumoniae [1]) [µg/mL]	Ratio (Enterococcus faecium [2])	MIC (Enterococcus faecium [3]) [µg/mL]	Ratio (Staphylococcus aureus [4])	Ratio (Enterococcus faecium [5])	MIC (Staphylococcus aureus [6]) [µg/mL]	Ratio [7]	MIC [8] [µg/mL]	Ratio (Streptococcus pneumoniae [9])	MIC (Streptococcus pneumoniae [10]) [µg/mL]	MIC (Staphylococcus aureus [11]) [µg/mL]	MIC (Enterococcus faecium [12]) [µg/mL]	Ratio (Staphylococcus aureus [13])	Ratio (Streptococcus pneumoniae [14])
C=C[C@]1(C)C[C@@H](OC(=O)CSCCOc2cc(=O)oc3cc(Br)ccc23)[C@]2(C)[C@H](C)CC[C@]3(CCC(=O)[C@H]32)[C@@H](C)[C@@H]1O	0.25 (≈ 0.378 µM)	2	0.5 (≈ 0.756 µM)	>4	2	0.25 (≈ 0.378 µM)	>4	0.125 (≈ 0.189 µM)	>4	0.125 (≈ 0.189 µM)	0.125 (≈ 0.189 µM)	0.125 (≈ 0.189 µM)	–	–
C=C[C@]1(C)C[C@@H](OC(=O)CSc2cc(=O)oc3ccc(OC)cc23)[C@]2(C)[C@H](C)CC[C@]3(CCC(=O)[C@H]32)[C@@H](C)[C@@H]1O	0.125 (≈ 0.22 µM)	2	0.125 (≈ 0.22 µM)	2	>4	0.125 (≈ 0.22 µM)	>4	0.063 (≈ 0.111 µM)	>4	0.125 (≈ 0.22 µM)	0.125 (≈ 0.22 µM)	0.063 (≈ 0.111 µM)	4	–
C=C[C@]1(C)C[C@@H](OC(=O)CSCCOc2cc(=O)oc3ccc(OC)cc23)[C@]2(C)[C@H](C)CC[C@]3(CCC(=O)[C@H]32)[C@@H](C)[C@@H]1O	0.125 (≈ 0.204 µM)	1	0.25 (≈ 0.408 µM)	>4	>4	0.25 (≈ 0.408 µM)	4	0.031 (≈ 0.0506 µM)	>4	0.125 (≈ 0.204 µM)	0.125 (≈ 0.204 µM)	0.063 (≈ 0.103 µM)	–	–
C=C[C@]1(C)C[C@@H](OC(=O)CSCCOc2cc(=O)oc3ccc([N+](=O)[O-])cc23)[C@]2(C)[C@H](C)CC[C@]3(CCC(=O)[C@H]32)[C@@H](C)[C@@H]1O	0.063 (≈ 0.1 µM)	2	0.25 (≈ 0.398 µM)	>4	2	0.125 (≈ 0.199 µM)	>4	0.031 (≈ 0.0494 µM)	2	0.063 (≈ 0.1 µM)	0.125 (≈ 0.199 µM)	0.063 (≈ 0.1 µM)	–	>4
C=C[C@]1(C)C[C@@H](OC(=O)CSCCOc2cc(=O)oc3ccc(Br)cc23)[C@]2(C)[C@H](C)CC[C@]3(CCC(=O)[C@H]32)[C@@H](C)[C@@H]1O	2 (≈ 3.02 µM)	2	16 (≈ 24.2 µM)	2	2	1 (≈ 1.51 µM)	>4	0.25 (≈ 0.378 µM)	>4	2 (≈ 3.02 µM)	0.25 (≈ 0.378 µM)	1 (≈ 1.51 µM)	>4	4
C=C[C@]1(C)C[C@@H](OC(=O)CSc2cc(=O)oc3ccc(Br)cc23)[C@]2(C)[C@H](C)CC[C@]3(CCC(=O)[C@H]32)[C@@H](C)[C@@H]1O	0.063 (≈ 0.102 µM)	>4	0.25 (≈ 0.405 µM)	>4	>4	0.25 (≈ 0.405 µM)	>4	0.063 (≈ 0.102 µM)	2	0.25 (≈ 0.405 µM)	0.125 (≈ 0.202 µM)	0.25 (≈ 0.405 µM)	–	>4
C=C[C@]1(C)C[C@@H](OC(=O)CSCCOc2cc(=O)oc3ccc(Cl)cc23)[C@]2(C)[C@H](C)CC[C@]3(CCC(=O)[C@H]32)[C@@H](C)[C@@H]1O	2 (≈ 3.24 µM)	>4	1 (≈ 1.62 µM)	>4	>4	0.5 (≈ 0.81 µM)	>4	0.125 (≈ 0.203 µM)	>4	4 (≈ 6.48 µM)	0.5 (≈ 0.81 µM)	1 (≈ 1.62 µM)	–	–
C=C[C@]1(C)C[C@@H](OC(=O)CSc2cc(=O)oc3ccc(C)cc23)[C@]2(C)[C@H](C)CC[C@]3(CCC(=O)[C@H]32)[C@@H](C)[C@@H]1O	0.125 (≈ 0.226 µM)	2	2 (≈ 3.62 µM)	>4	4	0.125 (≈ 0.226 µM)	>4	0.063 (≈ 0.114 µM)	4	0.25 (≈ 0.452 µM)	0.125 (≈ 0.226 µM)	0.25 (≈ 0.452 µM)	–	>4
C=C[C@]1(C)C[C@@H](OC(=O)CSCCOc2cc(=O)oc3ccc(F)cc23)[C@]2(C)[C@H](C)CC[C@]3(CCC(=O)[C@H]32)[C@@H](C)[C@@H]1O	1 (≈ 1.66 µM)	4	8 (≈ 13.3 µM)	>4	>4	0.5 (≈ 0.832 µM)	>4	0.125 (≈ 0.208 µM)	>4	1 (≈ 1.66 µM)	0.5 (≈ 0.832 µM)	1 (≈ 1.66 µM)	–	–
C=C[C@]1(C)C[C@@H](OC(=O)CSCCOc2cc(=O)oc3ccc(C)cc23)[C@]2(C)[C@H](C)CC[C@]3(CCC(=O)[C@H]32)[C@@H](C)[C@@H]1O	0.25 (≈ 0.419 µM)	1	0.25 (≈ 0.419 µM)	>4	>4	0.125 (≈ 0.209 µM)	>4	0.125 (≈ 0.209 µM)	2	0.063 (≈ 0.106 µM)	0.25 (≈ 0.419 µM)	0.125 (≈ 0.209 µM)	–	>4
C=C[C@]1(C)C[C@@H](OC(=O)CSc2cc(=O)oc3ccc(Cl)cc23)[C@]2(C)[C@H](C)CC[C@]3(CCC(=O)[C@H]32)[C@@H](C)[C@@H]1O	0.125 (≈ 0.218 µM)	2	0.5 (≈ 0.872 µM)	>4	>4	0.25 (≈ 0.436 µM)	>4	0.063 (≈ 0.11 µM)	2	0.125 (≈ 0.218 µM)	0.125 (≈ 0.218 µM)	0.125 (≈ 0.218 µM)	–	4
C=C[C@]1(C)C[C@@H](OC(=O)CSCCOc2cc(=O)oc3cc(C)ccc23)[C@]2(C)[C@H](C)CC[C@]3(CCC(=O)[C@H]32)[C@@H](C)[C@@H]1O	0.25 (≈ 0.419 µM)	1	0.25 (≈ 0.419 µM)	>4	2	0.25 (≈ 0.419 µM)	4	0.063 (≈ 0.106 µM)	2	0.125 (≈ 0.209 µM)	0.125 (≈ 0.209 µM)	0.125 (≈ 0.209 µM)	–	4
C=C[C@]1(C)C[C@@H](OC(=O)CSCCOc2cc(=O)oc3cc(F)ccc23)[C@]2(C)[C@H](C)CC[C@]3(CCC(=O)[C@H]32)[C@@H](C)[C@@H]1O	0.125 (≈ 0.208 µM)	2	0.25 (≈ 0.416 µM)	>4	>4	0.125 (≈ 0.208 µM)	>4	0.031 (≈ 0.0516 µM)	>4	0.25 (≈ 0.416 µM)	0.125 (≈ 0.208 µM)	0.125 (≈ 0.208 µM)	–	–
C=C[C@]1(C)C[C@@H](OC(=O)CSCCOc2cc(=O)oc3cc(Cl)ccc23)[C@]2(C)[C@H](C)CC[C@]3(CCC(=O)[C@H]32)[C@@H](C)[C@@H]1O	0.125 (≈ 0.203 µM)	>4	0.5 (≈ 0.81 µM)	>4	>4	1 (≈ 1.62 µM)	>4	0.125 (≈ 0.203 µM)	>4	0.063 (≈ 0.102 µM)	0.25 (≈ 0.405 µM)	0.125 (≈ 0.203 µM)	–	2
